Data: patent US20030109522A1, “Ophthalmologic treatment methods using selective iNOS inhibitors” (priority 2001, published 2003)
Counter-ions that a name gives are not always drawn. Like-named read-outs stand apart in the source and are kept apart here.

Assays:
[1] = test system: nitrite production in human cartilage explants; assay: Human cartilage explant assay (IL-1 induced nitrite production); format: cell-based; details: inhibition of nitrite production, IL-1 stimulated explants
Procedure: Human Cartilage Explant Assay
Bone pieces are rinsed twice with Dulbecco's Phosphate Buffered Saline (GibcoBRL) and once with Dulbecco's Modified Eagles Medium (GibcoBRL) and placed into a petri dish with phenol red free Minimum Essential Medium (MEM) (GibcoBRL). Cartilage was cut into small explants of approximately 15-45 mg in weight and one or two explants per well are placed into either 96 or 48 well culture plates with 200-500 μL of culture media per well. The culture media was either a custom modification of Minimum Essential Medium(Eagle) with Earle's salts (GibcoBRL) prepared without L-Arginine, without L-Glutamine and without phenol red or a custom modification of serumless Neuman and Tytell (GibcoBRL) medium prepared without L-arginine, without insulin, without ascorbic acid, without L-glutamine and without phenol red. Both are supplemented before use with 100 μM L-Arginine (Sigma), 2 mM L-glutamine, 1×HL-1 supplement (BioWhittaker), […] ascorbic acid (Sigma) and 150 pg/ml recombinant human IL-1[…] (RD Systems) to induce nitric oxide synthase. Compounds are then added in 10 μL aliquots and the explants incubated at 37° C. with 5% CO2 for 18-24 hours. The day old supernatant is then discarded and replaced with fresh culture media containing recombinant human IL-1 ? and compound and incubated for another 20-24 hours. […] All samples are done in quadruplicate. Unstimulated controls are cultured in media in the absence of recombinant human IL-1[…]. IC50 values (Table I) are determined from plotting the percent inhibition of nitrite production at six different concentrations of inhibitor.

[2] = biological target: T1, hecNOS (Homo sapiens, UniProt P29474); assay: Assay for time dependent inhibition, hecNOS; format: biochemical
T1 construct: made in house; host or cells: Sf9 insect cells, baculovirus vector
Procedure: (§1) Assay for Time Dependent Inhibition
(§2) Aliquots (10 μL) are removed at 0, 10,21 and 60 minutes and immediately added to a citrulline assay enzyme reaction mixture containing L-[2,3-^3H]-arginine and a final L-arginine concentration of 30 μM in a final volume of 100 μL. The reaction is allowed to proceed for 15 minutes at 37° C. and terminated by addition of stop buffer and chromatography with Dowex 50W X-8 cation exchange ion exchange resin as described for the citrulline NOS assay. The % inhibition of NOS activity by an inhibitor was taken as the percent inhibition in activity compared to control enzyme preincubated for the same time in the absence of inhibitor.

[3] = biological target: T2, hiNOS (Homo sapiens, UniProt P35228); assay: Assay for time dependent inhibition, hiNOS; format: biochemical
T2 construct: made in house; host or cells: Sf9 insect cells, baculovirus vector
Procedure: as §1, §2

[4] = biological target: T3, hncNOS (Homo sapiens, UniProt P29475); assay: Assay for time dependent inhibition, hncNOS; format: biochemical
T3 construct: made in house; host or cells: Sf9 insect cells, baculovirus vector
Procedure: as §1, §2

[5] = biological target: T4, human endothelial constitutive NOS (hecNOS) (Homo sapiens, UniProt P29474); assay: Citrulline assay for nitric oxide synthase, hecNOS; format: biochemical; details: averages across all experiments and all lots; 30 μM L-arginine
T4 construct: made in house; host or cells: Sf9 insect cells, baculovirus vector
T4 sequence (P29474 2-1203): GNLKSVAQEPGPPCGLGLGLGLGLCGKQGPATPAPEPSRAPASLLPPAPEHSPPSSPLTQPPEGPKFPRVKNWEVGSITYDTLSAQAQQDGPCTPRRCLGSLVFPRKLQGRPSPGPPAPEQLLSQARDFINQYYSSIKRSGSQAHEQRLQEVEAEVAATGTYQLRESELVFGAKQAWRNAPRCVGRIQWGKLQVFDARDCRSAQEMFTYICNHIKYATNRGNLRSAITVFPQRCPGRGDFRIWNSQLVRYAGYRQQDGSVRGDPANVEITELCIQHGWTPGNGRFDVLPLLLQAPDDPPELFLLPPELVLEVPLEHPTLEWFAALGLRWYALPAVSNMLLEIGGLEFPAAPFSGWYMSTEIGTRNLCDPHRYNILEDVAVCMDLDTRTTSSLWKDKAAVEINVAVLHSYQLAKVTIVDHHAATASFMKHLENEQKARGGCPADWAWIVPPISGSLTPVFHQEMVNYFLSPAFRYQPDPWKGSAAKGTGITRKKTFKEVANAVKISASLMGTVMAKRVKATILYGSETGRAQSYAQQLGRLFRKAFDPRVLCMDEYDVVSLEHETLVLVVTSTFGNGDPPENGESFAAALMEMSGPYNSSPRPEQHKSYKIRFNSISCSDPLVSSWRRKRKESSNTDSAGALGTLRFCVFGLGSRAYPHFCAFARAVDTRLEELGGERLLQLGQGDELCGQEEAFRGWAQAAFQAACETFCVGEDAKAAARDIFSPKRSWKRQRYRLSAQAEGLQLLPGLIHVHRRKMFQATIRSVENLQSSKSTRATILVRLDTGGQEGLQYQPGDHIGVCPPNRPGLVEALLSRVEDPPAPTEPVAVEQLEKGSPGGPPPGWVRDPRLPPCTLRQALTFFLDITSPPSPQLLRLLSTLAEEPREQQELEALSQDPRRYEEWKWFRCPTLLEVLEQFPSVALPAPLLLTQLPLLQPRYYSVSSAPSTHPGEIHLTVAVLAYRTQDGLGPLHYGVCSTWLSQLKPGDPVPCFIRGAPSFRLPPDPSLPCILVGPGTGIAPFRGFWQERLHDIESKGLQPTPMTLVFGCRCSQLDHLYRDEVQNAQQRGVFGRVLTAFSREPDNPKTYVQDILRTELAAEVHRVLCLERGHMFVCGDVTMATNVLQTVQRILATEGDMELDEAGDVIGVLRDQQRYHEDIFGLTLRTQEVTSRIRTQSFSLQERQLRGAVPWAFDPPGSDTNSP
Procedure: (§3) Citrulline Assay for Nitric Oxide Synthase
(§4) To measure NOS activity, 10 μL of enzyme is added to 40 μL of 50 mM Tris (pH 7.6) in the presence or absence of test compounds and the reaction initiated by the addition of 50 μL of a reaction mixture containing 50 mM Tris (pH 7.6), 2.0 mg/mL bovine serum albumin, 2.0 mM DTT, 4.0 mM CaCl2, 20 μM FAD, 100 μM tetrahydrobiopterin, 0.4 mM NADPH and 60 μL-arginine containing 0.9 μCi of L-[2,3-^3H]-arginine. The final concentration of L-arginine in the assay is 30 μM. For hecNOS or hncNOS, calmodulin is included at a final concentration of 40-100 nM. Following incubation at 37° C. for 15 minutes, the reaction is terminated by addition of 400 μL of a suspension (1 part resin, 3 parts buffer) of Dowex 50W X-8 cation exchange resin in a stop buffer containing 10 mM EGTA, 100 mM HEPES, pH 5.5 and 1 mM L-citrulline. After mixing the resin is allowed to settle and L-[2,3-^3H]-Citrulline formation is determined by counting aliquots of the supernatant with a liquid scintillation counter.

[6] = biological target: T5, human neuronal constitutive NOS (hncNOS) (Homo sapiens, UniProt P29475); assay: Citrulline assay for nitric oxide synthase, hncNOS; format: biochemical; details: averages across all experiments and all lots; 30 μM L-arginine
T5 construct: made in house; host or cells: Sf9 insect cells, baculovirus vector
T5 sequence (P29475 whole entry): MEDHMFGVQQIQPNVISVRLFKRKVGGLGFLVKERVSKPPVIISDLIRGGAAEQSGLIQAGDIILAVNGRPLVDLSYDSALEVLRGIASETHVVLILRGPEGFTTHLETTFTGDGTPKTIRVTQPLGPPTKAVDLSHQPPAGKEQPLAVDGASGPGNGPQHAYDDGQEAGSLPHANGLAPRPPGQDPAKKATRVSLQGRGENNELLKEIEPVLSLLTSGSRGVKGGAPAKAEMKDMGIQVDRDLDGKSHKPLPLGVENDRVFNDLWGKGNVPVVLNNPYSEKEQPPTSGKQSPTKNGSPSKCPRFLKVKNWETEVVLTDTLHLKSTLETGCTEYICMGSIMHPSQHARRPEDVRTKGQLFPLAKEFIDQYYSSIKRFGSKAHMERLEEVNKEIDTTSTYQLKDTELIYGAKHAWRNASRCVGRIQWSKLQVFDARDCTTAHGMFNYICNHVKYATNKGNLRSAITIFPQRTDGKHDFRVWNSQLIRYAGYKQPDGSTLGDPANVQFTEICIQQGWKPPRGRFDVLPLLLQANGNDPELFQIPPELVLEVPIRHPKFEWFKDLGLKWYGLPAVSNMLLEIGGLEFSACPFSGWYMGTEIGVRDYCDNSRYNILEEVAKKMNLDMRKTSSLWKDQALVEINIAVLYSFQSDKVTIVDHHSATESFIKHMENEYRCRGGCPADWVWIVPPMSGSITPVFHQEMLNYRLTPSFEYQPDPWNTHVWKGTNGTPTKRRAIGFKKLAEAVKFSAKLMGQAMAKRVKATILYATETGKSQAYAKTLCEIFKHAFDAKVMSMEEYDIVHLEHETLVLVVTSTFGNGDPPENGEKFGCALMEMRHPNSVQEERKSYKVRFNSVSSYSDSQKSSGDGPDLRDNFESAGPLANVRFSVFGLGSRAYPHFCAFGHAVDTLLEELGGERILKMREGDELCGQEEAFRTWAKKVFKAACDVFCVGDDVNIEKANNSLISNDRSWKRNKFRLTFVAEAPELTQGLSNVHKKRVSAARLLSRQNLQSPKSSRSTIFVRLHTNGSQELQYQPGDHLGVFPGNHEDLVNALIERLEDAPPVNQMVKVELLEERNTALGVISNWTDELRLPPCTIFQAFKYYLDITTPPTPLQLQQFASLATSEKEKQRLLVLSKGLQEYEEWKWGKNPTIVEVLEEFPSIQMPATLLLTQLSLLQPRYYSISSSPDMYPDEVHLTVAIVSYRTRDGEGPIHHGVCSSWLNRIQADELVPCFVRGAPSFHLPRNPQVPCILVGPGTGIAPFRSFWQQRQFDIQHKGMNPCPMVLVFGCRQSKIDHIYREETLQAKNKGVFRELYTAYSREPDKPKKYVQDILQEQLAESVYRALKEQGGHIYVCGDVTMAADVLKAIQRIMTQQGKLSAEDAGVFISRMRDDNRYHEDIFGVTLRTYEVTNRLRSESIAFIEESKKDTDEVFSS
Procedure: as §3, §4

[7] = biological target: T6, Human inducible NOS (hiNOS) (Homo sapiens, UniProt P35228); assay: Citrulline assay for nitric oxide synthase, hiNOS; format: biochemical; details: averages across all experiments and all lots; 30 μM L-arginine
T6 construct: made in house; host or cells: Sf9 insect cells, baculovirus vector
T6 sequence (P35228 whole entry): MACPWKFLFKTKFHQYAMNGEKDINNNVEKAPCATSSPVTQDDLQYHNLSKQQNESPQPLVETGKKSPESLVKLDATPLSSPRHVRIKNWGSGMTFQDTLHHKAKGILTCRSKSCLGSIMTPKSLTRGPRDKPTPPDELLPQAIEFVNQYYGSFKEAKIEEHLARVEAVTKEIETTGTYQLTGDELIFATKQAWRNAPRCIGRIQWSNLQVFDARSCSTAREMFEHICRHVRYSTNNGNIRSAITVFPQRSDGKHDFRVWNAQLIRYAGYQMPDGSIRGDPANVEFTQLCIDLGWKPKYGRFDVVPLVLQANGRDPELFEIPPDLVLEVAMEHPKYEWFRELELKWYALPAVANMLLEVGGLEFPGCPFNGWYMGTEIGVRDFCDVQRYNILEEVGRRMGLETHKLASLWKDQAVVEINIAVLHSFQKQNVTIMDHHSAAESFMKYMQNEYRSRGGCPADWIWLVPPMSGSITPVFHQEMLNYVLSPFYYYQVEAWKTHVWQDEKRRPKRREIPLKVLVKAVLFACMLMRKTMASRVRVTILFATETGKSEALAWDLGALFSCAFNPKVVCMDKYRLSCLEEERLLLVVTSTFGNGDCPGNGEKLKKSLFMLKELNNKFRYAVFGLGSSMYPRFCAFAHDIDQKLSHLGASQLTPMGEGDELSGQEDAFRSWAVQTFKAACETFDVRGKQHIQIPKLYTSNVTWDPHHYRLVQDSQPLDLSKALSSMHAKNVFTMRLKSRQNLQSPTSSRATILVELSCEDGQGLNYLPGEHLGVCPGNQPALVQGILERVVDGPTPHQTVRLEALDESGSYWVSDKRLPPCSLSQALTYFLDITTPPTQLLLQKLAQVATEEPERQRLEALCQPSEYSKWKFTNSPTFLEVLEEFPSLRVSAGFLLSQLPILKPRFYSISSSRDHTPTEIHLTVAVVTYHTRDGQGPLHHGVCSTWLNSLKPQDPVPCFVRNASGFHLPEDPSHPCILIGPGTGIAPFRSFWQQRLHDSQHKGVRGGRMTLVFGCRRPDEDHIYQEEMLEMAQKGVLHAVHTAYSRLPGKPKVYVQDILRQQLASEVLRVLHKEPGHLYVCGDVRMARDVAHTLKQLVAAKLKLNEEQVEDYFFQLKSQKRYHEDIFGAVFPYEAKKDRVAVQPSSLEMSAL
Procedure: as §3, §4

[8] = test system: LPS-induced increase in plasma nitrite/nitrate levels; assay: In vivo assay, endotoxin-treated rats; details: administered orally, plasma nitrite/nitrate 5 hours post-treatment
Procedure: Plasma nitrite/nitrate levels can be determined 5 hours post-treatment.

[9] = test system: retinal ganglion cells; details: rats with chronic moderately elevated IOP; cited from earlier work
[10] = Rattus norvegicus, po, read-out: ED50

CC(=N)NC/C=C\CC[C@H](N)C(=O)O [Example T, (2S,5Z)-2-amino-7-[(1-iminoethyl)amino]-5-heptenoic Acid, Dihydrochloride]
IC50 ([1]; Homo sapiens): 0.1 µM

N=C1CCCC[C@H](CCCC[C@@H](N)C(=O)O)N1 [Example Y, ([…]R,2S)-[…]-aminohexahydro-7-imino-1H-azepine-2-hexanoic Acid, Trihydrate Hydrochloride]
inhibition at 33 µM ([2]; 21 min preincubation): 11%
inhibition at 33 µM ([2]; 60 min preincubation): 11%
inhibition at 2.8 µM ([3]; 21 min preincubation): 75%
inhibition at 2.8 µM ([3]; 60 min preincubation): 76%
inhibition at 5 µM ([4]; 5 μM, 21 min preincubation): 0%
IC50 [1]: < 10 µM

CC(=N)NC/C(F)=C\CC[C@@](C)(N)C(=O)O [Example JJ, (2R,5E)-2-amino-2-methyl-6-fluoro-7-[(1-iminoethyl)amino]-5-heptenoic Acid, Dihydrochloride]
IC50 [5]: 352 µM
IC50 [6]: 584 µM
IC50 [7]: 56 µM

CC(=N)NC/C=C/C[C@](C)(N)C(=O)O [Example EE, (S, E)-2-amino-2-methyl-6-[(1-iminoethyl)amino]-4-hexenoic Acid, Dihydrochloride]
IC50 [5]: 18 µM
ED50 [8, 10]: 0.2 mg/kg
IC50 [6]: 5.8 µM
IC50 [7]: 1.4 µM
IC50 ([1]; Homo sapiens): 0.5 µM

N=C(N)NN [aminoguanidine]
loss of retinal ganglion cells [9]: blocks loss of retinal ganglion cells

CC(=N)NC/C=C/C[C@@](C)(N)C(=O)O [Example DD, (R, E)-2-amino-2-methyl-6-[(1-iminoethyl)amino]-4-hexenoic Acid, Dihydrochloride]
IC50 [5]: 74 µM
IC50 [6]: 31 µM
IC50 [7]: 10 µM
IC50 ([1]; Homo sapiens): 1.8 µM

CC(=N)NC/C(F)=C\CC[C@](C)(N)C(=O)O.Cl.Cl [Example HH, (2S,5E)-2-amino-2-methyl-6-fluoro-7-[(1-iminoethyl)amino]-5-heptenoic Acid, Dihydrochloride]
IC50 [5]: 37 µM
ED50 [8, 10]: 0.4 mg/kg
IC50 [6]: 7.6 µM
IC50 [7]: 0.4 µM
IC50 ([1]; Homo sapiens): 0.4 µM

N=C1CCCC[C@H](CCCC[C@@H](N)C(=O)O)N1 [Example V, ([…]R,2S)-[…]-aminohexahydro-7-imino-1H-azepine-2-hexanoic Acid, Trihydrate Hydrochloride]
ED50 [8, 10]: < 3 mg/kg
IC50 ([1]; Homo sapiens): < 10 µM

N=C1CCCC[C@H](CCCC[C@H](N)C(=O)O)N1 [Example X, ([…]S,2S)-[…]-aminohexahydro-7-imino-1H-azepine-2-hexanoic Acid, Trihydrate Hydrochloride]
IC50 ([1]; Homo sapiens): < 10 µM

N=C1CCCC[C@@H](CCCC[C@H](N)C(=O)O)N1 [Example W, ([…]S,2R)-[…]-aminohexahydro-7-imino-1H-azepine-2-hexanoic Acid, Trihydrate Hydrochloride]
inhibition at 173 µM ([2]; 21 min preincubation): 9%
inhibition at 173 µM ([2]; 60 min preincubation): 0%
inhibition at 4.2 µM ([3]; 21 min preincubation): 34%
inhibition at 4.2 µM ([3]; 60 min preincubation): 38%
ED50 [8, 10]: > 10 mg/kg
inhibition at 13 µM ([4]; 13 μM, 21 min preincubation): 0%
IC50 ([1]; Homo sapiens): > 30 µM

CC(=N)NC/C(F)=C/CC[C@H](N)C(=O)O [Example D, (2S,5Z)-2-amino-6-fluoro-7-[(1-iminoethyl)amino]-5-heptenoic Acid, Trihydrochloride, Dihydrate]
ED50 [8, 10]: > 10 mg/kg
IC50 ([1]; Homo sapiens): 2.5 µM

CC(=N)NC/C(F)=C\CC[C@H](N)C(=O)O [Example A, (2S,5E)-2-amino-6-fluoro-7-[(1-iminoethyl)amino]-5-heptenoic Acid, Dihydrochloride, Monohydrate]
ED50 [8, 10]: < 0.1 mg/kg
ED50 ([8]; Dihydrochloride, Monohydrate): <0.1 mg/kg
IC50 ([1]; Homo sapiens): 0.1 µM

CC(=N)NC/C=C/CC(C)(N)C(=O)O (stereo not shown) [Example CC, (E)-2-amino-2-methyl-6-[(1-iminoethyl)amino]-4-hexenoic Acid, Dihydrochloride]
IC50 [5]: 29 µM
ED50 [8, 10]: < 3 mg/kg
IC50 [6]: 9.9 µM
IC50 [7]: 2.9 µM
IC50 ([1]; Homo sapiens): 0.5 µM

CC(=N)NCC#CCC(C)(N)C(=O)O (stereo not shown) [Example FF, 2-amino-2-methyl-6-[(1-iminoethyl)amino]-4-hexynoic Acid, Dihydrochloride]
IC50 [5]: 86 µM
IC50 [6]: 45 µM
IC50 [7]: 16 µM

CC(=N)NC/C=C\CC[C@](C)(N)C(=O)O.Cl.Cl [Example LL, (2S,5Z)-2-amino-2-methyl-7-[(1-iminoethyl)amino]-5-heptenoic Acid, Dihydrochloride]
IC50 [5]: 31 µM
ED50 [8, 10]: 0.3 mg/kg
IC50 [6]: 12 µM
IC50 [7]: 0.7 µM
IC50 ([1]; Homo sapiens): 0.8 µM

N=C1CCCC[C@H](C/C=C\C[C@H](N)C(=O)O)N1 [Example AA, (2S,4Z)-2-amino-6-[(2R)-hexahydro-7-imino-1H-azepin-2-yl]-4-hexenoic Acid]
IC50 [5]: > 5 µM
inhibition at 2.2 µM ([2]; 2.2 μM, 60 min preincubation): 55%
inhibition at 5.7 µM ([2]; 5.7 μM, 21 min preincubation): 58%
inhibition at 2.2 µM ([3]; 21 min preincubation): 96%
inhibition at 2.2 µM ([3]; 60 min preincubation): 97%
ED50 [8, 10]: < 10 mg/kg
IC50 [6]: < 3 µM
IC50 [7]: < 3 µM
inhibition at 0.9 µM ([4]; 21 min preincubation): 34%
inhibition at 0.9 µM ([4]; 60 min preincubation): 0%
IC50 ([1]; Homo sapiens): < 3 µM

CC(=N)NCC(F)=CCC[C@H](N)C(=O)O (mixture of isomers) [Example B, (2S,5E/Z)-2-amino-6-fluoro-7-[(1-iminoethyl)amino]-5-heptenoic Acid, Dihydrochloride]
IC50 ([1]; Homo sapiens): 0.2 µM

COC[C@](N)(CSCCNC(C)=N)C(=O)O [Example J, 2-[[[2-1(1-Iminoethyl)amino]ethyl]thiolmethyl]-O-methyl-D-serine, Dihydrochloride]
IC50 [1]: 8.2 µM

N=C1CCCC[C@H](C/C=C/C[C@H](N)C(=O)O)N1 [Example BB, (2S,4E)-2-amino-6-[(2R)-hexahydro-7-imino-1H-azepin-2-yl]-4-hexenoic Acid]
IC50 [5]: > 25 µM
IC50 [6]: < 10 µM
IC50 [7]: < 10 µM

N=C1CCCC[C@H](CCCC[C@H](N)C(=O)O)N1 [Example Z, ([…]S,2S)-[…]-aminohexahydro-7-imino-1H-azepine-2-hexanoic Acid, Trihydrate Hydrochloride]
inhibition at 15 µM ([2]; 21 min preincubation): 18%
inhibition at 15 µM ([2]; 60 min preincubation): 16%
inhibition at 2.2 µM ([3]; 21 min preincubation): 86%
inhibition at 2.2 µM ([3]; 60 min preincubation): 85%
ED50 [8, 10]: < 5 mg/kg
inhibition at 3 µM ([4]; 3 μM, 21 min preincubation): 0%

CC(=N)NC/C(F)=C\CCC(C)(N)C(=O)O (racemic) [Example KK, (2R/S,5E)-2-amino-2-methyl-6-fluoro-7-[(1-iminoethyl)amino]-5-heptenoic Acid, Dihydrochloride]
IC50 [5]: 52 µM
ED50 [8, 10]: 0.3 mg/kg
IC50 [6]: 13 µM
IC50 [7]: 0.57 µM

CC(=N)NC/C=C\CC[C@@](C)(N)C(=O)O [Example MM, (2R,5Z)-2-amino-2-methyl-7-[(1-iminoethyl)amino]-5-heptenoic Acid, Dihydrochloride]
IC50 [5]: 1930 µM
IC50 [6]: 1480 µM
IC50 [7]: 121 µM

CC(=NO)NC/C(F)=C\CC[C@H](N)C(=O)O [Example G, (2S,5E)-2-amino-6-fluoro-7-[(1-hydroximinoethyl)amino]-5-heptenoic Acid]
ED50 [8, 10]: < 0.1 mg/kg
melting point: 198 to 200 °C

CC(=N)NC/C(F)=C\CC[C@H](N)C(=O)Nc1nnn[nH]1 [Example H, (2S,5E)-2-amino-6-fluoro-7-[(1-iminoethyl)amino]-N-(1H-tetrazol-5-yl) 5-heptenamide, Dihydrochloride]
ED50 [8, 10]: < 0.3 mg/kg
